In patent US20040047829A1, “Fluids for sanitizing the teats of dairy animals” (priority 2002, published 2004):

Experiment: Stability of ADBAC solutions
Assay type: physicochemical
Excerpt: The principal antibacterial ingredient in these formulations is alkyl dimethyl benzyl ammonium chloride (ADBAC). ADBAC is effective in killing the bacteria associated with mastitis in milking animals, and is not an oxidant. It also has a slight detergent action and so assists in cleaning dirt off of the animal's teats. […] It is inexpensive and is obtained commercially in a convenient dry form under the trade name TIMSEN. In TIMSEN, urea is used as a carrier and a buffer in a weight ratio of about three parts urea to two parts ADBAC by weight. Urea will be in the sanitizing fluid when TIMSEN is used as the stock source for ADBAC, however, it will be understood that urea is not an active ingredient in these formulations.

Question: Which stability of solutions does the source give for “alkyl dimethyl benzyl ammonium chloride [ADBAC]” here?
Answer: The stability of solutions was “stable for over a year”.
